The source of these data is patent US11253471B2, “Rectal mucosal administration preparation of Pulsatilla chinensis saponin B4 and preparation method therefor” (priority 2018, dated 2022).

The subject of assay [1] is gentamicin-induced acute kidney injury in rats. The assay is described as follows: Gentamicin-induced acute kidney injury in rats: serum indexes and urinary protein. Conditions: for Urinary Protein, 5th day of administration / Urinary Protein, 6th day of administration / Urinary Protein, 7th day of administration / BUN / CREA / TP: by gavage; for BUN / CREA / TP: serum, 7 days. The class given is in vivo, SD rats. The text has this:
Acute renal failure induced by gentamicin was mainly manifested in the increase of creatinine and urea nitrogen, but the mechanism of gentamicin induced nephrotoxicity was still unclear. In this experiment, two kinds of rectal mucosa administration preparations of Pulsatilla chinensis saponin B4 according to the present invention were infused by anus to observe the preventive and therapeutic effects of tested drugs on gentamicin-induced ARF in rats, and compared with oral (gavage) administration of Pulsatilla chinensis saponin B4.
(§1) Dexamethasone solution: 4 tablets of dexamethasone were ground and dissolved in 100 ml double distilled water, and then diluted to 0.03 mg/ml.
B4 raw powder solution: 2000 mg of B4 raw powder was weighed, ground, and dissolved in 100 ml double distilled water to obtain 20 mg/ml solution.
Rats in experimental groups were intraperitoneally injected with gentamicin sulfate solution at the dose of 140 mg/kg, while the rats in the blank group were intraperitoneally injected with equal volume of normal saline, and the administration was continued for 7 days to make a model.
The animals were randomly divided into blank group; model group; positive drug group (dexamethasone group); B4 gel high, medium, and low dose groups; B4 suppository high, medium, and low dose groups; B4 powder group; 10 animals for each group. Animals in B4 gel groups received the gel by rectum at 0.3 ml/100 g body weight; animals in B4 suppository groups received the suppository by rectum; B4 raw powder group and positive group were given corresponding drugs by gavage according to 10 ml/kg body weight. The model group and the blank group were given the same volume of double distilled water by gavage. The drug was continuously administered for 7 days from the second day of modeling.
Urine proteins were detected by Coomassie brilliant blue method. After isoflurane anesthesia, blood samples were taken from eyeballs of rats. Serum was separated. Total protein (TP), urea nitrogen (BUN), and creatinine (CRE) were detected by automatic biochemical analysis.

Assay [2] relates to cisplatin-induced acute kidney injury in mice. Briefly: Cisplatin-induced acute kidney injury in mice: serum indexes and urinary protein. Conditions: for Urinary Protein / BUN / CREA / TP: by gavage, 4 days; for Urinary Protein: one hour after the last administration; for BUN / CREA / TP: serum. The class given is in vivo, ICR mice. As for the experimental part: After intraperitoneal injection of cisplatin, cisplatin was toxic to different parts of the kidney. It could cause changes in the function and morphology of glomerulus and renal tubules. Cisplatin could cause renal vasoconstriction, reduce renal blood flow and glomerular filtration rate, and thus cause proteinuria, renal function damage and other symptoms. In this study, B4 was administered by different routes (rectum and oral) to observe the preventive and therapeutic effects of B4 on cisplatin-induced ARF in mice.
2.1.2 Reagent: cisplatin, the original solution 5 mg/kg.
as §1
B4 raw powder solution: 1000 mg of B4 raw powder was weighed, ground, and dissolved in 100 ml double distilled water to obtain 10 mg/ml solution.
The model was established by cisplatin at a dosage of […]. The normal group was intraperitoneally injected with normal saline, and the other groups were intraperitoneally injected with cisplatin injection.
The animals were randomly divided into blank group; model group; positive drug group (dexamethasone group); B4 gel high, medium, and low dose groups; B4 suppository high, medium, and low dose groups; B4 raw powder group; 10 animals for each group. Animals in B4 gel groups received the gel by rectum at 0.3 ml/100 g body weight; animals in B4 suppository groups received the suppository by rectum; B4 raw powder group and positive group were given corresponding drugs by gavage according to 20 m/kg body weight. The model group and the blank group were given the same volume of double distilled water by gavage. The drug was continuously administered for 4 days from the day of modeling. Animals were fasted for 16-18 hours before administration on day 4.
One hour after the last administration, urine was collected to measure urine proteins. Blood samples were taken from eyeballs to separate serum. Total protein (TP), urea nitrogen (BUN) and creatinine (Cre) were detected by automatic biochemical analysis.

Where [3] appears, read: gel and suppository by rectum, raw powder oral.

Turning to `C=C(C)C1CC[C@]2(C(=O)O[C@@H]3O[C@H](CO[C@@H]4O[C@H](CO)[C@@H](O[C@@H]5O[C@@H](C)[C@H](O)[C@@H](O)[C@H]5O)[C@H](O)[C@H]4O)[C@@H](O)[C@H](O)[C@H]3O)CC[C@]3(C)[C@H](CC[C@@H]4[C@@]5(C)CC[C@H](OC6OC[C@H](O)[C@H](O)[C@H]6O[C@@H]6O[C@@H](C)[C@H](O)[C@@H](O)[C@H]6O)[C@@](C)(CO)[C@@H]5CC[C@]43C)[C@@H]12` (stereo partly shown) [B4 raw powder, Pulsatilla chinensis saponin B4], in assay [1] (200 mg/kg), the “Urinary Protein, 5th day of administration” value came to 4.86 ± 1.22 mg/mL; the “Urinary Protein, 6th day of administration” value was found to be 5.18 ± 1.15 mg/mL; the “Urinary Protein, 7th day of administration” value came to 5.38 ± 0.92 mg/mL; the BUN amounted to 126.4 mg/dL. Further, in assay [1] (200 mg/kg), the CREA came out at 268.7 ± 56.2 µmol/L and the TP stood at 53.2 ± 4.3 g/L. Moreover, the “effect on renal function (creatinine and urea nitrogen), conclusion in words” value in assay [1] (setting [3]) is “had a tendency to improve the renal function”. In assay [2] (400 mg/kg), the “Urinary Protein” value was 1.55 mg/mL, the BUN worked out at 55.86 mg/dL, the CREA was determined as 38.11 ± 9.56 µmol/L and the TP was 46.12 ± 2.27 g/L. Also, in assay [2] (setting [3]), the “effect on renal function, conclusion in words” value is “no significant difference compared with the model group”.

On to `C[C@@H]1C[C@H]2[C@@H]3CCC4=CC(=O)C=C[C@]4(C)[C@@]3(F)[C@@H](O)C[C@]2(C)[C@@]1(O)C(=O)CO` [Dexamethasone, reference compound], for which, in assay [1] (0.3 mg/kg), the “Urinary Protein, 5th day of administration” value stood at 5.15 ± 0.89 mg/mL; the “Urinary Protein, 6th day of administration” value was 5.52 ± 1.36 mg/mL; the “Urinary Protein, 7th day of administration” value stood at 5.63 ± 0.58 mg/mL; the BUN came out at 79.3 ± 33.6 mg/dL. In addition, in assay [1] (0.3 mg/kg), the CREA worked out at 83.2 ± 31.9 µmol/L and the TP was 65.7 ± 5.8 g/L. Besides, in assay [2] (0.6 mg/kg), the “Urinary Protein” value worked out at 1.00 mg/mL, the BUN came to 42.97 mg/dL, the CREA was found to be 30.10 µmol/L and the TP is on record as 52.90 g/L.
